Patent publication US7601739B2, “Compounds having antiestrogenic and tissue selective estrogenic properties, and compounds with anti-androgenic properties for treatment of prostate cancer and androgen receptor dependent diseases” (Virgina Commonwealth University, priority 2006, dated 2009)

How the values were obtained:
[1] = tested on: hER; assay: Fluorescence-based competitive binding assay for hER (displacement of fluormone ES2); design: species or system human; conditions: for Relative Binding Affinity: RBA = IC50 of tamoxifen/IC50 of test molecule, tamoxifen set at 1
Description: The estrogen receptor competitor assay kits (Panvera, Madison, Wis.) were used to determine the ability of test molecules to displace the fluormone, ES2, from hER -ES2 or hER -ES2 complex. Serial dilutions of each test molecule were prepared in methanol or DMSO. The recombinant hER or hER (7 nM) was preincubated with ES2 (1 nM) in screening buffer. After the preincubation, the test molecules and ER-ES2 complex solution were added into the 96-well microplate to produce a final volume of 100 μl per well. The reaction was incubated at room temperature for 1 hr and the polarization values were measured by using fluorescence microplate reader, Polarion (Tecan, Research Triangle Park, N.C.) with excitation wavelength 495 nm and emission wavelength 535 nm. The polarization value versus test molecule concentration curves was analyzed by graphfit software to generate IC50 values.
In this assay, recombinant hER and the commercial synthetic estrogen, ES2 containing fluorescence polarization property, are used. This assay is a homogenous assay. When the assay solution only contains ES2, the solution exerts weak fluorescence polarization property due to the quick rotation of free ES2 molecule. […] Addition of the antiestrogen to the ES2/hER displaces ES2 from hER and results in the whole solution exerting less fluorescence polarization property than the solution without antiestrogen.

[2] = target: T1, hERα D351Y (Homo sapiens, UniProt P03372, D351Y); assay: Transient transfection reporter assay with hERα D351Y mutant; type: cell-based
T1 construct: mammalian expression plasmid containing full length human ER cDNA, pCMV-hER; expressed in transfected cells
T1 sequence (P03372 1-595 D351Y): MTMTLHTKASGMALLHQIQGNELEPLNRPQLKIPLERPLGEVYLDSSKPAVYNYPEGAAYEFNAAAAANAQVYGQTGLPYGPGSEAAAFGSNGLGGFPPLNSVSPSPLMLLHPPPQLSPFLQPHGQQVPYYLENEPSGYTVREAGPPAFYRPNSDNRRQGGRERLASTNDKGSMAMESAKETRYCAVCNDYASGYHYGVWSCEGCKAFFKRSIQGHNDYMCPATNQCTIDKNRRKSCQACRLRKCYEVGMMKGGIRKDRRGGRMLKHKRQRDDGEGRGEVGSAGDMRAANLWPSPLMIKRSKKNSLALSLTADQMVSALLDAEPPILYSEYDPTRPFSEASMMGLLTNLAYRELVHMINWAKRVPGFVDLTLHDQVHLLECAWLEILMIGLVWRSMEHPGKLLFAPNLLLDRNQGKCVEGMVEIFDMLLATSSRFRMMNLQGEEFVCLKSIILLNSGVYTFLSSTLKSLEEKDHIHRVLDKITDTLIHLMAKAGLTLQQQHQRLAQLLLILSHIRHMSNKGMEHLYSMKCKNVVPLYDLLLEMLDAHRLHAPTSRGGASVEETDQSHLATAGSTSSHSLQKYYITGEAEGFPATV
Description: The tyrosine mutation (pCMV-D351Y) at amino acid 351 was introduced by using the Quick Change Site-Directed Mutagenesis Kit (Stratagene, La Jolla, Calif.) and pCMV-ER was used as the template. The primers constructed were as follows: 5′ primer (5′-[…]-3′) (SEQ ID NO. 9), the underlined nucleotide was changed to make the D351Y mutation) and a 3′ primer (5′-[…]-3′) (SEQ ID NO. 10).
For the transient transfection reporter assays, the cells were plated in triplicate in 12-well plates at a density of 300000 cells/well in the phenol red-free DMEM (GIBCO/BRL, Grand Island, N.Y.) supplemented with 10% charcoal-stripped fetal bovine serum (Hyclone, Logan, Utah), Penicillin (100 unit/ml)/Streptomycin ([…]), 2 mML-glutamine and 1 mM sodium Pyruvate. 24 hrs later, the cells were transfected with three plasmids by using Superfect transfection kit (Qiagen, Valencia, Calif.). For the detection of hER activity, cells were transfected with 2 g hER expression plasmid (pCMV-ER ), 6 g luciferase reporter plasmid containing estrogen receptor response element (PGL-TATA-Luc), and 600 ng normalization control, β-galactosidase reporter plasmid (pCMV ). For the detection of hER activity, cells were transfected with 3 ug hER expression plasmid (pcDNA3.1-hER), 6 g luciferase reporter plasmid containing estrogen receptor response element (PGL-TATA-Luc), and 600 ng pCMV. For determining the influence of ER's major coactivator in breast, AIB 1, 2 g pcDNA3.1-AIB1 was added into the transfection plasmid solution mentioned previously.
The transfected cells were rinsed with PBS and treated with various concentrations of test molecules and one […] (vehicle, DMSO or methanol) in phenol red-free culture medium. After incubation for further 24 hrs, the cells were washed with PBS and lysed with lysis buffer (Pierce, Rockford, Ill.). The lysate was used to determine the luciferase activity for ER's activity and the β-galactosidase activity for the normalization of transfection efficiency.
For the luciferase activity assay, 20 μl of lysate and 100 μl luciferase assay buffer (Promega, Madison, Wis.) were added into a well of 96-well plate. The luminescence was detected by using luminescence microplate reader, LumiCount (Packard, Boston, Mass.). For the β-galactosidase activity assay, […] β-galactosidase assay buffer (Clontech, Palo Alto, Calif.) were added into a well of 96-well plate. The β-galactosidase activity was measured as luminescence strength by using luminescence microplate reader, LumiCount (Packard, Boston, Mass.). The normalized reporter activity was calculated by the luciferase activity divided by that of β-galactosidase.
Amino acid 351 (D351) of hERα plays an essential role in regulating estrogenic or antiestrogenic compound's binding to hERα and the recruitment of corepressors. […] Based on this observation the hERα D351Y mutant is generated by PCR-based site directed mutagenesis method for use in the transient transfection reporter assay. The main goal of this testing is to elucidate the existence of the pure antiestrogenic property of the compounds of the invention and to determine whether the compounds estrogenic activity will increase due to the presence of hERα D351Y or not.
In this assay, DMSO was used as reference.

[3] = tested on: MCF-7 cells; assay: hERα positive breast cancer cell proliferation assay; type: cell-based, human; conditions: for activity at 5 µM: Homo sapiens, MCF7, 72 h, MCF-7 cells, DMSO = 1, read-out: Relative Cancer Cell Proliferation Effects at 5 μM
Description: MCF-7 or MDA-MB-231 cells were inoculated into 12-well culture plates at 10000 cells in 2 ml maintained medium per well. Cells were allowed to attach to the bottom for 24 hrs incubation, then the seeding medium was removed and replaced by the experimental medium (phenol red-free DMEM supplemented with 5% charcoal-stripped fetal bovine serum and Penicillin (100 unit/ml)/Streptomycin ([…])). After 24 hr incubation, the test molecules dissolved in DMSO were added in the wells. […] The culture was continued for 3 days and the medium and tested compounds were replaced every two days. The final cell numbers were estimated with CellTiter proliferation assay kit (Promega, Madison, Wis.) by measuring the absorbance at 570 nm, which is directly proportional to the number of living cells in the culture.
MCF-7 cell line was used to perform this assay and the description of this assay as mentioned above. […] DMSO was used as reference.

SMILES	Relative Binding Affinity [1]	estrogenic activity against hERα D351Y compared with hERα wild type (FIG. 5) [2]	estrogenic effects against mutant hERα D351Y compared with DMSO (FIG. 5) [2]	inhibition effects against MCF-7 cell proliferation [3]	activity at 5 µM [3] [%]	binding affinity for hER compared with tamoxifen [1]	inhibition of MCF-7 cell proliferation ([3]; relative to DMSO) [%]
CCCCNC(=O)CCCCCCCCCCOCC1Cc2ccccc2CN1C(=O)c1cccc(OC)c1 (centres unmarked) [Compound 4]	0.192	do not increase	even lower than that of DMSO	slightly lower inhibition effects than compound 6	70	–	–
CCCCNC(=O)CCCCCCCCCCOCC1Cc2ccccc2CN1C(=O)c1cccc(O)c1 (centres unmarked) [Compound 6]	5.0	do not increase	even lower than that of DMSO	strongest inhibition effects	62	highest binding affinity and higher than tamoxifen	38
CCCCNC(=O)CCCCCCCCCCOCC1Cc2ccccc2CN1C(=O)c1ccc(O)cc1 (centres unmarked) [Compound 7]	1.79	do not increase	even lower than that of DMSO	–	95	highest binding affinity and higher than tamoxifen	–
